Assay results taken from patent publication US10954549B2, “Detection and classification of an anticoagulant using a clotting assay” (Haemonetics Corporation, priority 2014, dated 2021).

How the values were obtained:
[1] = test system: blood from a single human volunteer; assay: Detection time (R time with Factor Xa) in volunteer blood before and after oral anticoagulant; type: in vivo; details: 2 hours 30 minutes after 20 mg oral
Protocol: (§1) Blood from a single human volunteer was analyzed using thromboelastography with Factor Xa and ecarin before and after the volunteer was orally administered an anticoagulant.
(§2) For these studies, the normal ranges for the particular reagent (i.e., Factor Xa or ecarin) were determined using multiple donors known not to be taking any anticoagulant.
(§3) The human volunteer was known not to be taking (i.e., was not being administered) an anticoagulant. In this example, blood was taken from the volunteer before the volunteer was administered any anticoagulant. This is the “before” blood component sample. The volunteer was orally administered 20 mg rivaroxaban, an anti-Factor Xa anticoagulant. Two hours and thirty minutes after oral administration of the rivaroxaban, blood was drawn again from the volunteer. This is the “after” blood component sample.
(§4) The “before” and “after” samples were analyzed using thromboelastography in the presence of Factor Xa or in the presence of ecarin. When the R time is determined in the presence of Factor Xa, that time is called the detection time. When the R time is determined in the presence of ecarin, that time is called the classification time.

citrated whole blood = assay: TEG Kaolin test of blood spiked with anticoagulant; type: biochemical, human; details: for R value versus control reference range: reference range about 5 to about 10 minutes; for MA values versus control: all studied concentrations; for R, K, α, and MRTG parameters, statistical significance versus control: three concentrations per drug, Example 1; for MRTG / TMRTG: Kaolin
Source text: The TEG clotting assay was used to determine if low, normal, and high doses of dabigatran, rivaroxaban, and apixaban could be detected in blood spiked with these compounds. Three oral anticoagulants (OAC), namely dabigatran, rivaroxaban, and apixaban, were spiked into blood obtained from 14 healthy volunteer human donors. For each OAC tested, citrated blood from three donors was spiked with three different concentrations of the active drug (i.e., the compound). The spiked blood samples and control samples spiked with diluent were tested with the TEG® 5000 Thrombelastograph® Hemostasis Analyzer (Haemonetics Corporation, Braintree, Mass., USA) using the Kaolin and RapidTEG® reagents (Haemonetics). Each sample was run in triplicate. All samples were tested with and without ecarin (purchased from Enzyme Research Laboratories, South Bend, IN). This study was IRB approved and all donors were over 18 and signed informed consent forms.
Dabigatran stock was prepared from the active dabigatran moiety (Alsachim, France) by dissolution in 0.1M HCl and further dilution in 1:1 DMSO:H20. […] Tubes of citrated blood were spiked with this dabigatran stock to create final concentrations of 500, 200, and 50 ng/mL of citrated whole blood.
Rivaroxaban stock was prepared by agitation of a 20 mg Xarelto tablet (Jannsen, Titusville, N.J.) in a 1:1 DMSO: H20 solution, which was diluted to a final concentration of 20 ng/uL rivaroxaban in 1:1 DMSO:H20. Tubes of citrated blood were spiked with this rivaroxaban stock to create final concentrations of 500, 89, and 22 ng/mL in citrated whole blood. […] Apixaban stock was prepared in a similar manner from a 2.5 mg Eliquis tablet (Bristol-Myers Squibb, New York, N.Y.), with final concentrations of 1000, 500, and 250 ng/mL in whole blood. Apixaban is approved for prevention of VTE in elective hip or knee replacement surgery (2.5 mg BID) and for prevention of stroke and systemic embolism in patients with non-valvular AF (5 mg BID) (see Bristol-Myers SP, EEIG. apixaban summary of product characteristics). […] Control samples, prepared for each tested drug, included a solvent control containing only citrated blood and the diluent used to dilute the drug stock, and an unadulterated citrate blood tube.
Testing was performed on TEG-5000 analyzers (Haemonetics Corp., Braintree, Mass., USA) using Kaolin vials, 0.2M CaCl2, RapidTEG (rTEG) vials, diluent water, and disposable clear cups and pins provided by the manufacturer (Haemonetics, Braintree, Mass.), and ecarin (Enzyme Research Laboratories, South Bend, Ind.). All testing was performed in triplicate at each dose, and allowed to continue until the MA (maximum amplitude) parameter defined. The various components of the TEG tracing are depicted in FIG. 3A. The Kaolin test generates an R parameter, which is measured in minutes, and is the time elapsed from the initiation of the test until the point where the onset of clotting provides enough resistance to produce a 2 mm amplitude reading on the TEG tracing. This parameter represents the initiation phase of coagulation related to the function of enzymatic clotting factors. The R parameter has a normal range of 5 to 10 min for kaolin. A prolonged R time indicates slower clot formation. K is a measurement of the time interval from the split point to the point where fibrin cross-linking provides enough clot resistance to produce a 20 mm amplitude reading. The α angle is the angle formed by the slope of a tangent line traced from the R to the K time and a central line measured in degrees. K time and the α angle denote the rate at which the clot strengthens, and is representative of thrombin's cleaving of the available fibrinogen into fibrin. The MA indicates the point at which clot strength reaches its maximum amplitude, measured in millimeters on the TEG tracing, and reflects the end result of maximal platelet-fibrin interaction via the GPIIb-IIIa receptors (see Khurana S et al., J Lab Clin Med. 130:401-411, 1997). […]

[2] = test system: blood from a single human volunteer; assay: Classification time (R time with ecarin) in volunteer blood before and after oral anticoagulant; type: in vivo; details: 2 hours 30 minutes after 20 mg oral
Protocol: as §1, §2, §3, §4

porcine plasma = assay: TEG 6S DTI channel R-time, porcine experimental trauma model; type: in vivo; details: pre and post trauma; baseline 3.4±0.6 min
Protocol: The TEG®6S system (Haemonetics Corp., Braintree, Mass.) is based on viscoelasticity measurements using resonance frequency and disposable multi-channel microfluidic cartridges. Blood and plasma from healthy volunteers were spiked with dabigatran in the therapeutic range (in increasing concentrations) and tested with an OAC cartridge with an ecarin based, direct thrombin inhibitor (DTI) channel. This channel was also evaluated with porcine plasma from an experimental trauma model (n=6) where dabigatran levels were measured with dilute TT (Hemoclot®). TEG 6s R-time (reaction time) was correlated to the drug levels.

[3] = blood spiked with 50 ng/ml dabigatran
[4] = blood spiked with 200 ng/ml dabigatran
[5] = blood spiked with 500 ng/ml dabigatran

Compound	"after" detection time (R time, FXa reagent) [1]	"after" detection time relative to the reference range R time of 1.5 minutes [1] [times]	R value versus control reference range (citrated whole blood; 500 ng/ml (highest dosage))	MA values versus control (citrated whole blood)	R time versus non-spiked blood sample (citrated whole blood; highest concentration tested)	R value versus control reference range (citrated whole blood; lower two doses (22 and 89 ng/ml))	R, K, α, and MRTG parameters, statistical significance versus control (citrated whole blood)	R of "after" blood versus Ecarin reference range (approximately 4.1 minutes upper boundary) [2]	R value versus control reference range (citrated whole blood; 50 ng/ml (lowest dosage))	R value, dose dependence (citrated whole blood; 50, 200, 500 ng/ml)	R, α, and TMRTG parameters between concentrations (citrated whole blood; 500, 200, 50 ng/mL)	R time versus non-spiked blood sample (citrated whole blood; all doses)	MRTG (citrated whole blood; [3]) [mm/min]	TMRTG (citrated whole blood; [3]) [min]	MRTG (citrated whole blood; [4]) [mm/min]	TMRTG (citrated whole blood; [4]) [min]	MRTG (citrated whole blood; [5]) [mm/min]	TMRTG (citrated whole blood; [5]) [min]	R-time following administration (porcine plasma) [min]
O=C(NC[C@H]1CN(c2ccc(N3CCOCC3=O)cc2)C(=O)O1)c1ccc(Cl)s1 [rivaroxaban, Rivaroxaban]	approximately 4.4 minutes	2.93	outside of the normal (i.e., control) reference range	did not change	significantly higher	within the control reference range	only achieved statistical significance for the higher concentrations	within the Ecarin reference range	–	–	–	–	–	–	–	–	–	–	–
dabigatran	–	–	–	did not change	–	–	able to detect the presence of all tested concentrations	–	outside of the normal (i.e., control) reference range	increases the R value of the tested blood components in a dose dependent manner	significantly different between all concentrations	significantly higher	13	13	12	18	7	22	≥ 21 ± 5.9
